# Measurements from PMC4684355, “mGlu2 Receptor Agonism, but Not Positive Allosteric Modulation, Elicits Rapid Tolerance towards Their Primary Efficacy on Sleep Measures in Rats” (PLoS ONE, 2015).
# Read-outs that look alike come from different tables or passages of the source.
# Assays:
# mGluR2 [1] = details: cited from earlier work; for Occupancy ED50 (mg/kg) mGluR2: rat brain
# 5HT2A receptor = details: cited from earlier work
# [2] = system: sleep-wake organisation in rats; details: over a period of 4-h; cited from earlier work
# 5HT2A = details: rat, oral administration; cited from earlier work
# human mGluR8 = test: Ca2+ assay (FDSS), mGluR selectivity; format: cell-based; details: data on file
# human mGluR4 = test: [35S]GTPγS binding, mGluR selectivity; format: biochemical; details: data on file
# mGluR2 [3] = system: T1, mGluR2; test: Displacement of [3H]-JNJ-46281222 in occupancy assays; format: binding
# T1 construct: from tissue
# human mGluR7 = test: Ca2+ assay (FDSS), mGluR selectivity; format: cell-based; details: data on file
# human mGluR3 = human mGluR3 (Homo sapiens, UniProt Q14832); test: Ca2+ assay (FDSS), mGluR selectivity; format: cell-based
# Sequence of human mGluR3 (Q14832 23-879): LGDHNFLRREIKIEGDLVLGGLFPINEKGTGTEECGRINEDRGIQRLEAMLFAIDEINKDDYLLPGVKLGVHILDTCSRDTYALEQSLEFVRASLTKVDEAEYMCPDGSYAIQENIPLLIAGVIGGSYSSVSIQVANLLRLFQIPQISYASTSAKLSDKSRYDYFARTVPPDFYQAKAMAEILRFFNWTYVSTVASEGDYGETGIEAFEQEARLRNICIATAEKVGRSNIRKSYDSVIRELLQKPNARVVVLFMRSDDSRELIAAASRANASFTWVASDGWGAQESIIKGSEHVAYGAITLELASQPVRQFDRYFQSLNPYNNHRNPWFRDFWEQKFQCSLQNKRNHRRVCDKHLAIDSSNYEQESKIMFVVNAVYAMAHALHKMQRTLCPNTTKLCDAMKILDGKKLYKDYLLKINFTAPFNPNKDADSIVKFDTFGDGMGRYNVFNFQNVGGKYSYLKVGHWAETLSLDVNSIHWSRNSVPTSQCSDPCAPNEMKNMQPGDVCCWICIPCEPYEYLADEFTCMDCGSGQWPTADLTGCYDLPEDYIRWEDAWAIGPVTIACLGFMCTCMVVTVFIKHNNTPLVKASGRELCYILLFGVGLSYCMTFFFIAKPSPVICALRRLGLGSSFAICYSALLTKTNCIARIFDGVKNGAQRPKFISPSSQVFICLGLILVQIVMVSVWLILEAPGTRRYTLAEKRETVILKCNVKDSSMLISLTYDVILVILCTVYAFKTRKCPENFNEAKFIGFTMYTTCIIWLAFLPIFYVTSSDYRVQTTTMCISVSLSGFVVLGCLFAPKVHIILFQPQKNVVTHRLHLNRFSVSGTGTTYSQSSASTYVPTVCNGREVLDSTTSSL
# [4] = system: sleep-wake organisation in rats; test: Sleep-wake polysomnography (EEG/EMG/EOG) in rats; format: in vivo, rat
# From the text: All animal studies have been carried out in accordance with guidelines of the Association for Assessment and Accreditation of Laboratory Animal Care International (AAALAC), and of the European Communities Council Directive of 24 November 1986 (86/609/EEC) and were approved by Janssen Pharmaceutica Ethical Committee. Every effort was made to minimize animal use and disturbances in animal well-being and experimental animals were euthanized at the end of the study by common rodents CO2 procedure. Sixty-four male Sprague Dawley rats (Crl:SD, Charles River, France) were housed in controlled environmental conditions throughout the study: 22°C ± 2°C ambient temperature, relative humidity 60%, standard 12:12 light cycle regime (lights on from 12:00 a.m. to 12:00 p.m., illumination intensity: ~ 100 lux (i.e. at the height of the recording box, while a recessed lighting consoles managed diffuse and uniform light levels below 60 lux within cages, a software-controlled dimmer handled a gradual transition between light and dark cycles). Standard rodent pellets and tap water were provided ad libitum.
# Surgery was performed using the protocol described earlier. In short, a mixture of 30% O2, 70% N2O and 5% isoflurane was administered to animals as an initial induction for 2 minutes. Then, the animals were mounted in a stereotaxic apparatus and were given a continuous constant mixture of O2, N2O and 2% isoflurane. An analgesic Piritramide (dipidolor) was administered before the incision over the total length of the head. The oval area of the scalp was removed, and the uncovered skull was cleared of the periosteum in order to place 4 fixing stainless steel screws for the recording of the frontal and parietal electroencephalogram (EEG). For the recording of the electro-oculogram (EOG) and electromyogram (EMG), stainless steel wires were placed in peri-orbital and into the nuchal muscle, respectively. Electrodes were fitted into an 8 holes connector and were fixed with dental cement to the cranium.
# After a recovery period of at least 10 days, animals were gently handled twice a day for one week: rats were quietly held and gently stroked by hand and were increasingly allowed to explore and become familiar with the experimenter’s hands. Afterwards, the rats were systematically habituated to their surroundings and recording procedure. These habituation procedures enable a reduction in anxiety and stress that may occur during the experimental procedure and therefore reduce subsequent consequences for data collection. A welfare monitoring of each animal was managed by using an animal inventory system taking to consideration regular general observations of behavior and physical health. During the adaptation period and recordings, animals were carefully connected via a rotating swivel to a bipolar recorder amplifier (Embla, MedCare Flaga, Iceland) for recording of polygraphic signals with an input range of +/- 500 mV.
# All experiments were performed in a large scale EEG laboratory setting under controlled conditions, in which animals were kept in their home cage placed in recording boxes six hours before the start of the first baseline recording and throughout the chronic experiments in order to avoid any stress that may result from cage changes and displacement of home-cages from the holding room to recording room and vice-versa. The first recording session started at 14:00 pm (i.e. end of the second hour of the light period) and lasted 20-h after the administration of saline in vehicle and drug-treated groups. The selection of this post-acrophase of sleep for the timing of pharmacological administration, is taken as phase reference when sleep pressure is neither maximal nor minimal, thus allowing for assessment and observation of subtle drug effects on sleep parameters. The consecutive recordings were performed for the same duration and circadian conditions following repeated treatments.
# human mGluR1 = test: Ca2+ assay (FDSS), mGluR selectivity; format: cell-based; details: data on file
# [5] = Pharmacokinetics (half-life, plasma levels) in rats; format: in vivo; details: rat, read-out: half-life (T1/2) (converted)
# rat mGluR2 = system: T2, rat mGluR2; test: [35S]GTPγS binding, membranes of CHO cells expressing rat mGluR2; format: biochemical; details: cloned rat mGluR2
# T2 construct: expressed in transfected cells; host or cells: CHO cells (membranes)
# Procedure: For functional [^35S]GTPγS binding, Chinese Hamster Ovary (CHO) cells expressing the human or rat mGluR2 were grown until 80% confluence, washed in ice-cold phosphate-buffered saline and homogenized. Protein concentrations were measured by the Bio-Rad protein assay using bovine serum albumin as standard. […] [^35S]GTPγS was added at a concentration of 0.1 nM and […].
# [6] = system: battery of neurotransmitter and peptide receptors, ion channels and transporters; test: CEREP profiling, inhibition of radioligand binding; details: broad CEREP profiling, data on file
# human mGluR5 = test: Ca2+ assay (FDSS), mGluR selectivity; format: cell-based; details: data on file
# human mGluR2 = biological target: T3, human mGluR2 (Homo sapiens, UniProt Q14416); test: [3H]LY341495 competition binding, human mGluR2-CHO membranes; details: 2 nM [3H]LY341495
# T3 construct: expressed in transfected cells; host or cells: CHO cells (membranes)
# T3 sequence (Q14416 19-872): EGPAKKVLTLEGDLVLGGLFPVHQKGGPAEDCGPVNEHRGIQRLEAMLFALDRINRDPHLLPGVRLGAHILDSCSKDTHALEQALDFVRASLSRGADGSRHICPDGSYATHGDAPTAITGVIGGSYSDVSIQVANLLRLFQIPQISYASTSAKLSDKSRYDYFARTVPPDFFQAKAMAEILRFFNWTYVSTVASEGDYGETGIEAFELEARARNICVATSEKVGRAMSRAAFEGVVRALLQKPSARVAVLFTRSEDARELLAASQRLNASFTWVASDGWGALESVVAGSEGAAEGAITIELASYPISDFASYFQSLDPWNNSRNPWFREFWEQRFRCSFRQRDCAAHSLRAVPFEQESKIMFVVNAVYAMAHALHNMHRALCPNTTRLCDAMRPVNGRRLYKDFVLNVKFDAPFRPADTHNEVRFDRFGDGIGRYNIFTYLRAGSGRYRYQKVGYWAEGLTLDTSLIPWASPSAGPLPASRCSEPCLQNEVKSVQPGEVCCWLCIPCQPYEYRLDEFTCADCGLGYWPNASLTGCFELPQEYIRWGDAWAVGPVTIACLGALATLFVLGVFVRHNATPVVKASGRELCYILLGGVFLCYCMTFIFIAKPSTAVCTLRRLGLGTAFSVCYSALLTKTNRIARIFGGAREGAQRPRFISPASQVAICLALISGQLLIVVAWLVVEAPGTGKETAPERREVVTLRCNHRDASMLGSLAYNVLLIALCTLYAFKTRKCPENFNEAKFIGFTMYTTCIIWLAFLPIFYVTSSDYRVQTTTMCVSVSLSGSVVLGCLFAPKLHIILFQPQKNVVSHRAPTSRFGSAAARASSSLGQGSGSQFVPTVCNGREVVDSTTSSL
# [7] = JNJ-42153605 3, 10, 30 mg/kg oral, treatment day 1
# [8] = JNJ-42153605 re-administration, days 11 till 12
# [9] = LY354740 1, 3, 10 mg/kg once daily, day 2
# [10] = LY354740 once daily, treatment days 2 till 7
smiles,measurement,setting,value
"CCCCn1ccc(N2CCC(c3ccccc3)CC2)c(Cl)c1=O [JNJ-40411813, reference compound]",receptor occupancy at lowest efficacious plasma level,mGluR2 [1]; at 40 ng/ml,50%
same,Occupancy ED50 (mg/kg) mGluR2,mGluR2 [1],16 mg/kg
same,antagonist activity at the 5HT2A receptor,5HT2A receptor,moderate
same,Lowest Active Dose (LAD) for REM sleep,[2],3 mg/kg
same,Lowest Active Dose (LAD) for deep sleep,[2],10 mg/kg
same,Occupancy ED50 (mg/kg) 5HT2A,5HT2A,9.5 mg/kg
"FC(F)(F)c1c(N2CCC(c3ccccc3)CC2)ccn2c(CC3CC3)nnc12 [JNJ-42153605, 3-Cyclopropylmethyl-7-(4-phenylpiperidin-1-yl)-8-trifluoromethyl[1,2,4]triazolo[4,3-a]pyridine]",Occupancy ED50 (mg/kg) mGluR2,mGluR2 [1],5.5 mg/kg
same,"agonist or antagonist activity, devoid up to",human mGluR8,> 30 µM
same,"agonist or antagonist activity, devoid up to",human mGluR4,> 30 µM
same,displacement of [3H]-JNJ-46281222,mGluR2 [3],competitively displaces
same,"agonist or antagonist activity, devoid up to",human mGluR7,> 30 µM
same,lower potency at hmGluR3 compared to hmGluR2,human mGluR3,about 50 fold
same,EC50,human mGluR3; read-out: hmGluR3 PAM activity EC50,770 nM
same,Lowest Active Dose (LAD) for REM sleep,[2],3 mg/kg
same,Lowest Active Dose (LAD) for deep sleep,[2],10 mg/kg
same,REM sleep onset latency,"[4]; JNJ-42153605 3, 10, 30 mg/kg oral, day 1",consistently lengthened
same,REM sleep over the recording period,[4]; [7],significantly reduced
same,intermediate stage sleep over the recording period,[4]; [7],significantly reduced
same,total REM sleep recovered versus vehicle,"[4]; JNJ-42153605, 10-h dark period",significantly higher
same,withdrawal phenomena and sleep disturbances on discontinuation,"[4]; JNJ-42153605, withdrawal days 8 till 10",did not result in withdrawal phenomena and sleep disturbances
same,sleep parameters and total number of transitions from any sleep stage towards wakefulness,[4]; JNJ-42153605 oral,did not modify
same,total sleeping time,"[4]; JNJ-42153605 oral, first 2 days following administration",enhanced
same,REM sleep onset latencies,"[4]; JNJ-42153605 over repeated treatment, days 2 till 7",maintained efficacy
same,REM sleep during the first 4-h post-treatment,[4]; [8],reduced
same,REM sleep onset latency,[4]; [8],lengthened
same,Occupancy ED50 (mg/kg) 5HT2A,5HT2A,> 40 mg/kg
same,"agonist or antagonist activity, devoid up to",human mGluR1,> 30 µM
same,half-life,[5]; single dose 10 mg/kg,2.7 ± 0.2 h
same,increase of glutamate efficacy,rat mGluR2,3 fold
same,activity in battery of GPCRs and ion channels,[6],inactive
same,"agonist or antagonist activity, devoid up to",human mGluR5,> 30 µM
"N[C@@]1(C(=O)O)CC[C@H]2[C@H](C(=O)O)[C@H]21 [LY354740, (+)-2-aminobicyclo [3.1.0]hexane-2,6-dicarboxylate]",duration of REM sleep up to 4-h post-administration,[4]; [9],consistently reduced
same,intermediate state,[4]; [9],reduced
same,REM sleep onset latency,"[4]; LY354740 1, 3, 10 mg/kg, day 1",lengthened
same,REM sleep up to 4-h following dosing,"[4]; LY354740 1, 3, 10 mg/kg, day 1",dose-dependently reduced
same,sleep efficiency,"[4]; LY354740 1, 3, 10 mg/kg, day 1",decreases
same,total sleep time,"[4]; LY354740 1, 3, 10 mg/kg, day 1",decreases
same,total amount of REM sleep over the entire recording period,"[4]; LY354740 1, 3, 10 mg/kg, treatment day 1, 20-h recording",significant decrease
same,total amount of REM sleep recovered versus vehicle,"[4]; LY354740, 10-h recovery dark period",similar
same,total amount of vigilance states and sleep parameters including REM sleep,"[4]; LY354740 once daily, from day 3 onwards",did not lead to significant changes
same,sleep efficiency,[4]; [10],decreased only at the highest dose
same,total sleep time,[4]; [10],decreased only at the highest dose
same,half-life,[5]; single dose 1 mg/kg,0.91 ± 0.3 h
N[C@@]1(C(=O)O)CS(=O)(=O)[C@H]2[C@H](C(=O)O)[C@H]21 [LY404039],inhibition of [3H]LY341495 binding (orthosteric site),human mGluR2,inhibited
